Assay results reported in patent US4374146A, “Topical inflammatory pharmaceutical formulations” (Burroughs Wellcome Co., priority 1980, dated 1983).
Where two headings read alike, the source gives them in different places.

Legend:
[1] = tested on: trypsin hyperalgesia, rat hindlimb; test: Trypsin Hyperalgesic Assay (THA), rat hindlimb; type: in vivo; conditions: for ED50: po, read-out: THA ED50; for Duration of Analgesia, time in hours to reduce -1.5 × THA ED50 to 40% inhibition: rat
Text: B. Trypsin Hyperalgesic Assay (THA)

acetic acid writhing [2] = test: Acetic Acid Writhing Test (AAWT), mouse; type: in vivo; conditions: po, read-out: AAWT ED50
Text: (§1) A. Acetic Acid Writhing Test (AAWT)
(§2) Using the procedure described by Koster et al. in Fed. Proc. 18, 412 (1959) and Vinegar et al. in Handbook of Experimental Pharmacology, 50-2, ch.

[3] = tested on: carrageenin pleurisy (3 hr exudate volume, mobilized neutrophils); test: Carrageenin Pleurisy Assay (CPA); type: in vivo, rat; conditions: for ED50: Rattus norvegicus, Neutrophil, po; for CPA Local activity (inactive at stated dose): inactive at 1.0 mg/rat
Experimental: (§3) A. Carrageenin Pleurisy Assay (CPA)
(§4) Following the procedure described by Vinegar et al. in European J. Rheumatology and Inflammation, 1, 204, (1978) the acute anti-inflammatory activity of the compound of formula (I) was compared with that of known anti-inflammatory drugs. Two assays were performed: in the first, the average 3 hr exudate volume for each drug-treated group was determined and the % inhibition relative to solvent-fed control animals calculated, the ED50 being the dose required to reduce the 3 hr exudate volume by 50%; in the second, the number of mobilized neutrophils was quantified and the % inhibition relative to solvent-fed control animals calculated, the ED50 being the dose required to reduce the number of neutrophils mobilized at 3 hrs by 50%.

[4] = tested on: carrageenin pleurisy in Adrex; test: AI activity in Adrex, carrageenin pleurisy p.o.; type: in vivo, rat; conditions: CP p.o.; for AI Activity in Adrex, Vol.: exudate volume
Experimental: as §3, §4

[5] = tested on: yeast-induced hyperthermia; test: Yeast-Induced Hyperthermia Assay; type: in vivo, rat; conditions: for ED50: po, rat
Text: The Yeast-Induced Hyperthermia Assay was used according to the procedure described by Khalili-Varasteh et al. in Arch. Int. Pharmacodyn.

[6] = Acute toxicity assay, mouse; conditions: in vivo
[7] = Acute toxicity assay, rat; conditions: in vivo
Experimental: Four non-fasted male rats of 160-250 gram body weight were used for each dose level. The compound was injected by the indicated route and the symptom onset time, the intensity of the effect and the duration during a 4 hour observation period are recorded. The LD50 estimated is based on a 7 day observation and is determined by the method of Miller and Tainter (Proc. Soc. Exp. Biol. Med. 57:261, 1944).

hepatic glutathione = test: Hepatic glutathione depletion in mouse; type: in vivo; conditions: for Hepatic Gluathione Depletion: @ 40% of LD50, i.p. in mouse, over a 5 hr period
[8] = tested on: mouse liver, mouse kidney; conditions: in vivo, ip
rat liver, rat kidney [9] = conditions: in vivo, ip
methemoglobinemia [10] = test: Methemoglobinemia (cyanosis), rat; conditions: for Methemoglobinemia (Cyanosis): rat, @ 500 mg/kg p.o.
methemoglobinemia [11] = test: Methemoglobinemia (cyanosis), dog; conditions: for Methemoglobinemia (Cyanosis): dog
acetic acid writhing [12] = test: Acetic Acid Writhing Test (AAWT), rat; type: in vivo; conditions: po, read-out: AAWT ED50
Text: as §1, §2

gastric damage [13] = test: Gastric damage in the rat; type: in vivo
hot plate analgesia = test: Hot plate assay for strong analgesic activity; conditions: in vivo
opiate receptors = test: Opiate receptor binding in vitro
[14] = tested on: analgesic activity (naloxone); test: Naloxone antagonism of analgesic activity; conditions: in vivo
prostaglandin synthetase = test: Prostaglandin synthetase inhibition; type: biochemical
lipoxygenase = test: Lipoxygenase inhibition; type: biochemical
peroxidase = test: Peroxidase inhibition; type: biochemical
platelet aggregation = test: Platelet aggregation inhibition
gastric damage [15] = test: Gastric damage (general statement); conditions: in vivo
rat liver, rat kidney [16] = test: Histopathology, rat liver and kidney; conditions: for Histopathology, Rat Kidney / Histopathology, Rat Liver: @ 40% LD50, i.p.
[17] = tested on: mouse liver, mouse kidney; test: Histopathology, mouse liver and kidney
[18] = dose reducing 3 hr exudate volume by 50%, read-out: CPA ED50, Vol.

## CC(=O)Nc1ccc(O)cc1 [Acetaminophen]
[1]; rat hindlimb, p.o.
  ED50: 95 ± 17.2 mg/kg
Acetic acid writhing [2]; mouse, p.o.
  ED50: 301 ± 11.5 mg/kg
[3]
  Duration of AI Activity, time in hrs to reduce 2 × CP cell ED50 to 40% inhibition of Vol.: Cells: 3.8 h
  Duration of AI Activity, time in hrs to reduce 2 × CP cell ED50 to 40% inhibition of Vol.: Vol.: 2.2 h
[3]; [18]
  ED50: 172 ± 22.4 mg/kg
[3]; local
  CPA Local activity (inactive at stated dose): Inactive
[4]
  AI Activity in Adrex, Cells: Weakly Active
  AI Activity in Adrex, Vol.: Active
[5]
  ED50: 72 ± 8.6 mg/kg
[6]; ip
  LD50 at 168 h: 880 mg/kg
[6]; po
  LD50 at 168 h: 1640 mg/kg
[7]; ip
  LD50 at 168 h: 1640 mg/kg
Hepatic glutathione
  Hepatic Gluathione Depletion: + (90% depletion over a 5 hr period)
[8]
  Histopathology, Mouse Kidney: +
  Histopathology, Mouse Liver: +
Rat liver, rat kidney [9]
  Histopathology, Rat Kidney: +
  Histopathology, Rat Liver: +
Methemoglobinemia [10]
  Methemoglobinemia (Cyanosis): No
Methemoglobinemia [11]; @ 100 mg/kg p.o.
  Methemoglobinemia (Cyanosis): No

## CC(=O)Oc1ccccc1C(=O)O [Aspirin]
[1]
  Activity in trypsin hyperalgesic assay: essentially inactive
[1]; rat hindlimb, p.o., inactive at 360 mg/kg
  THA activity (inactive at stated dose): Inactive
Acetic acid writhing [12]; Rattus norvegicus
  ED50: 21 ± 3.4 mg/kg
Acetic acid writhing [2]; Mus musculus
  ED50: 301 ± 21.1 mg/kg
[3]
  Duration of AI Activity, time in hrs to reduce 2 × CP cell ED50 to 40% inhibition of Vol.: Cells: 3.0 h
  Duration of AI Activity, time in hrs to reduce 2 × CP cell ED50 to 40% inhibition of Vol.: Vol.: 35.0 h
[3]; 3 h, read-out: CPA ED50, Cells
  ED50: 75 ± 7.5 mg/kg
[3]; 3 h, read-out: CPA ED50, Vol.
  ED50: 28 ± 3.2 mg/kg
[3]; local
  CPA ED50, Local: 0.04 mg/rat
[4]
  AI Activity in Adrex, Cells: Inactive
  AI Activity in Adrex, Vol.: Active
[5]
  ED50: 50 ± 8.1 mg/kg
[6]; ip
  LD50 at 168 h: 220 mg/kg
[6]; po
  LD50 at 168 h: 1100 mg/kg
[7]; ip, 7 day observation
  LD50 at 168 h: 500 mg/kg
Gastric damage [13]; single oral dose of 30 mg/kg
  Gastric damage in the rat: produces ulcers and haemorrhages

## COc1ccc2c3c1O[C@H]1[C@@H](O)C=C[C@H]4[C@@H](C2)N(C)CC[C@@]341 [Codeine]
Hot plate analgesia
  Activity in hot plate assay for strong analgesic activity: active

## CC(=O)Nc1ccc2c(c1)OCO2 [Compound of formula (I), N-(1,3-benzodioxol-5-yl)acetamide]
[1]; injected intracerebroventricularly (I.C.V.)
  Activity in trypsin hyperalgesic assay, I.C.V.: inactive
[1]; rat hindlimb, p.o.
  ED50: 20 ± 5.1 mg/kg
[1]; p.o.
  Duration of Analgesia, time in hours to reduce -1.5 × THA ED50 to 40% inhibition: 8.0 h
Acetic acid writhing [12]; rat, p.o.
  ED50: 50 ± 0.6 mg/kg
[3]
  Duration of AI Activity, time in hrs to reduce 2 × CP cell ED50 to 40% inhibition of Vol.: Cells: 6 h
  Duration of AI Activity, time in hrs to reduce 2 × CP cell ED50 to 40% inhibition of Vol.: Vol.: 6 h
[3]; [18]
  ED50: 34 ± 2.2 mg/kg
[3]; dose reducing neutrophils mobilized at 3 hrs by 50%, read-out: CPA ED50, Cells
  ED50: 49 ± 6.8 mg/kg
[3]; carrageenin pleurisy assay
  Anti-inflammatory activity in the rat: comparable with aspirin
[3]; local
  CPA Local activity (inactive at stated dose): Inactive
[4]
  AI Activity in Adrex, Cells: Active
  AI Activity in Adrex, Vol.: Active
[5]
  ED50: 57 mg/kg
[5]; yeast-induced hyperthermia
  Antipyretic activity in the rat: comparable with aspirin and phenacetin
[6]; ip
  LD50 at 168 h: 250 mg/kg
[6]; po
  LD50 at 168 h: 660 mg/kg
[7]; ip, 7 day observation
  LD50 at 168 h: 410 mg/kg
[7]; po, 7 day observation
  LD50 at 168 h: 1000 mg/kg
Hepatic glutathione; mouse
  Depletion of hepatic glutathione: not been shown
Gastric damage [13]; after 80 mg/kg
  Gastric damage in the rat: does not produce gastric damage
Hot plate analgesia
  Activity in hot plate assay for strong analgesic activity: inactive
Opiate receptors
  Binding to opiate receptors in vitro: does not bind to opiate receptors in vitro
[14]
  Inhibition of analgesic activity by naloxone: not inhibited by naloxone
Prostaglandin synthetase
  Prostaglandin synthetase inhibition: is not a prostaglandin synthetase, lipoxygenase or peroxidase inhibitor
lipoxygenase
  Lipoxygenase inhibition: is not a prostaglandin synthetase, lipoxygenase or peroxidase inhibitor
peroxidase
  Peroxidase inhibition: is not a prostaglandin synthetase, lipoxygenase or peroxidase inhibitor
Platelet aggregation
  Platelet aggregation inhibition: does not produce the gastric damage or platelet aggregation inhibition
Gastric damage [15]
  Gastric damage associated with aspirin-like drugs: does not produce the gastric damage
Methemoglobinemia [10]
  Methemoglobinemia (Cyanosis): No
Methemoglobinemia [10]; rats, high oral doses
  Methemoglobinaemia: not been shown
Methemoglobinemia [11]; @ 200 mg/kg p.o.
  Methemoglobinemia (Cyanosis): Slight
Methemoglobinemia [11]; dogs, high dose levels
  Methemoglobinaemia: has produced methemoglobinaemia in dogs at high dose levels
Rat liver, rat kidney [16]
  Histopathology, Rat Kidney: -
  Histopathology, Rat Liver: -
Rat liver, rat kidney [16]; rat
  Histopathological evidence of hepatic or renal damage: not been shown to produce histopathological evidence of hepatic or renal damage
[17]; mouse
  Histopathological evidence of hepatic or renal damage: not been shown to produce histopathological evidence of hepatic or renal damage

## CN1CC[C@]23c4c5ccc(O)c4O[C@H]2[C@@H](O)C=C[C@H]3[C@H]1C5 [Morphine]
Hot plate analgesia
  Activity in hot plate assay for strong analgesic activity: active

## CCOc1ccc(NC(C)=O)cc1 [Phenacetin, p-ethoxyacetanilide]
[1]; Rattus norvegicus
  ED50: 69 ± 11.6 mg/kg
[1]; p.o.
  Duration of Analgesia, time in hours to reduce -1.5 × THA ED50 to 40% inhibition: 5.7 h
Acetic acid writhing [12]; Rattus norvegicus
  ED50: 46 ± 10.1 mg/kg
Acetic acid writhing [2]; Mus musculus
  ED50: 116 ± 14.5 mg/kg
[3]
  Duration of AI Activity, time in hrs to reduce 2 × CP cell ED50 to 40% inhibition of Vol.: Cells: 7.0 h
  Duration of AI Activity, time in hrs to reduce 2 × CP cell ED50 to 40% inhibition of Vol.: Vol.: 10.5 h
[3]; 3 h, read-out: CPA ED50, Cells
  ED50: 110 ± 15.5 mg/kg
[3]; 3 h, read-out: CPA ED50, Vol.
  ED50: 102 ± 14.6 mg/kg
[3]; local
  CPA Local activity (inactive at stated dose): Inactive
[4]
  AI Activity in Adrex, Cells: Inactive
[5]
  ED50: 55 ± 28.6 mg/kg
[6]; ip
  LD50 at 168 h: 620 mg/kg
[6]; po
  LD50 at 168 h: 2500 mg/kg
[7]; ip, 7 day observation
  LD50 at 168 h: 900 mg/kg
[7]; po, 7 day observation
  LD50 at 168 h: 2900 mg/kg
Hepatic glutathione
  Hepatic Gluathione Depletion: + (90% depletion over a 5 hr period)
Methemoglobinemia [10]
  Methemoglobinemia (Cyanosis): Yes
Methemoglobinemia [11]; @ 100 mg/kg p.o.
  Methemoglobinemia (Cyanosis): Yes
Methemoglobinemia [11]; relatively low dose levels
  Methemoglobinaemia: produces severe methemoglobinaemia at relatively low dose levels
Rat liver, rat kidney [16]
  Histopathology, Rat Kidney: -
  Histopathology, Rat Liver: -
[17]; @ 40% LD50, i.p.
  Histopathology, Mouse Kidney: -
  Histopathology, Mouse Liver: -
